According to the kinase profiling compilation of Christmann-Franck et al. (2016):

Tests used:
Test in all cases: KINOMEscan competition binding
Conditions in all cases: compound 10.0 µM
[1] = target: CDK5 (human) (UniProt Q00535)
[2] = test system: RET (human), P07949 [V804L]
[3] = target: EPHA3 (human) (UniProt P29320)
[4] = target: CLK2 (human) (UniProt P49760)
[5] = target: BMPR1A (human) (UniProt P36894)
[6] = target: PRKCD (human) (UniProt Q05655)
[7] = target: MAPK4 (human) (UniProt P31152)
[8] = target: STK32A (human) (UniProt Q8WU08)
[9] = target: MAP3K10 (human) (UniProt Q02779)
MAP3K10 (human), sequence (Q02779 whole entry, looked up): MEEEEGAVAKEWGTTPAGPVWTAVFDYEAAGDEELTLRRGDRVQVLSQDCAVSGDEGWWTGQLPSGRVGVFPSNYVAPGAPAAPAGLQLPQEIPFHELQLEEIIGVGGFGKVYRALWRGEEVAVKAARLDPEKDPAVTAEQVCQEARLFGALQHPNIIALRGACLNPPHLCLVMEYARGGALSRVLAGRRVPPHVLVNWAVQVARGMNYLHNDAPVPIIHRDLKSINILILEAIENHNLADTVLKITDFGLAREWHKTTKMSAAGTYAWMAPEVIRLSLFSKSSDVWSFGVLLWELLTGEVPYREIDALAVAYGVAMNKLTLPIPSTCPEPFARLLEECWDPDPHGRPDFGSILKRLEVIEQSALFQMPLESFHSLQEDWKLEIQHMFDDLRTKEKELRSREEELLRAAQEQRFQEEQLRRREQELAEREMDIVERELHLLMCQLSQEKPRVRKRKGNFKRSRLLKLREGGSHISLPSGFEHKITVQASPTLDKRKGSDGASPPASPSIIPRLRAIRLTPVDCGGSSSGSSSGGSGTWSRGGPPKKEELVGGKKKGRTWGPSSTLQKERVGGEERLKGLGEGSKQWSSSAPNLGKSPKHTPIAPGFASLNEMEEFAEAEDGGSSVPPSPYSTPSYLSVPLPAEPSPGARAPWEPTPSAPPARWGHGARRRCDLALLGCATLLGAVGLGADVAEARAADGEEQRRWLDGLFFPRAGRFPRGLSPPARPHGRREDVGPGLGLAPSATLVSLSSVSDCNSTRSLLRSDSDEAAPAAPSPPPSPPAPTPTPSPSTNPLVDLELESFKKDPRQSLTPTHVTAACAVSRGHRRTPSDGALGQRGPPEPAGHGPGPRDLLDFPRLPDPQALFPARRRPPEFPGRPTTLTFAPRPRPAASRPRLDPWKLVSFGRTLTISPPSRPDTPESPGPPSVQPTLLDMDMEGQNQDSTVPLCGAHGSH

[10] = target: DAPK3 (human) (UniProt O43293)
[11] = target: RIOK2 (human) (UniProt Q9BVS4)
RIOK2 (human), sequence (Q9BVS4 whole entry, looked up): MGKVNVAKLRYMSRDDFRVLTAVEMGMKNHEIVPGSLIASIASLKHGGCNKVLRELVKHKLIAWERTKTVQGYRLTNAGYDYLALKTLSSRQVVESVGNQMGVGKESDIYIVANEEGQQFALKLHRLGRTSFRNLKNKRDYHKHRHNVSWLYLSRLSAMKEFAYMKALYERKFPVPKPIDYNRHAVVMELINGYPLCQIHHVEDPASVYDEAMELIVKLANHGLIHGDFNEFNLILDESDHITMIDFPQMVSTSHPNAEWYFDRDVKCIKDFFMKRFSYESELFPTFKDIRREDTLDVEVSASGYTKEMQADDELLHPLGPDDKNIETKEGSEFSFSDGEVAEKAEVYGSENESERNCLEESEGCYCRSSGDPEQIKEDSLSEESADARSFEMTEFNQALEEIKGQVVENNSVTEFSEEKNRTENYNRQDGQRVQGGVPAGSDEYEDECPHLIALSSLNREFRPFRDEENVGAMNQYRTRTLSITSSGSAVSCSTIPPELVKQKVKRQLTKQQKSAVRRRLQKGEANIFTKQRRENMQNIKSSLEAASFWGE

[12] = test system: FLT3 (human), P36888 [D835Y]
[13] = target: BRSK2 (human) (UniProt Q8IWQ3)
[14] = target: EPHA8 (human) (UniProt P29322)
[15] = target: TXK (human) (UniProt P42681)
[16] = target: SNRK (human) (UniProt Q9NRH2)
SNRK (human), sequence (Q9NRH2 whole entry, looked up): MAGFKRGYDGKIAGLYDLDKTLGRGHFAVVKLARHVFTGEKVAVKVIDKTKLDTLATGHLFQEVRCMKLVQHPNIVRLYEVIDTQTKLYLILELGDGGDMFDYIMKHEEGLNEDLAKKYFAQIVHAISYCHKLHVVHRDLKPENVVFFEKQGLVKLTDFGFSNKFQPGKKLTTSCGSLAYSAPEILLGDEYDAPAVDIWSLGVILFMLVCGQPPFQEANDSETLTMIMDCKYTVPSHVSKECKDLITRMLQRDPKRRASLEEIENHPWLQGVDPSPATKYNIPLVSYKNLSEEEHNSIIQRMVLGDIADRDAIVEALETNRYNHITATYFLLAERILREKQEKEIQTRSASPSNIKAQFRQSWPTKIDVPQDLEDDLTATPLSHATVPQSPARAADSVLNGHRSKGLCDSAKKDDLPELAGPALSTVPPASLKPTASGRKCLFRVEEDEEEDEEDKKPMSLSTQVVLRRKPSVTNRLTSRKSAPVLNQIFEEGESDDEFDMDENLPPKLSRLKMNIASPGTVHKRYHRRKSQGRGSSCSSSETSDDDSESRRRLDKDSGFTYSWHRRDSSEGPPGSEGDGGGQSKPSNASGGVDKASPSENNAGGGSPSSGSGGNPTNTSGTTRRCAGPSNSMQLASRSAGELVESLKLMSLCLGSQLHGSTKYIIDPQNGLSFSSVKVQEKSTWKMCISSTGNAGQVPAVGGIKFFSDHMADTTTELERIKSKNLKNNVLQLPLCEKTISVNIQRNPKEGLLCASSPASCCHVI

[17] = target: ADCK3 (human) (UniProt Q8NI60)
[18] = target: MAP4K1 (human) (UniProt Q92918)
[19] = target: TRPM6 (human) (UniProt Q9BX84)
[20] = target: PRKACB (human) (UniProt P22694)
[21] = target: MARK1 (human) (UniProt Q9P0L2)
[22] = target: NEK11 (human) (UniProt Q8NG66)
NEK11 (human), sequence (Q8NG66 whole entry, looked up): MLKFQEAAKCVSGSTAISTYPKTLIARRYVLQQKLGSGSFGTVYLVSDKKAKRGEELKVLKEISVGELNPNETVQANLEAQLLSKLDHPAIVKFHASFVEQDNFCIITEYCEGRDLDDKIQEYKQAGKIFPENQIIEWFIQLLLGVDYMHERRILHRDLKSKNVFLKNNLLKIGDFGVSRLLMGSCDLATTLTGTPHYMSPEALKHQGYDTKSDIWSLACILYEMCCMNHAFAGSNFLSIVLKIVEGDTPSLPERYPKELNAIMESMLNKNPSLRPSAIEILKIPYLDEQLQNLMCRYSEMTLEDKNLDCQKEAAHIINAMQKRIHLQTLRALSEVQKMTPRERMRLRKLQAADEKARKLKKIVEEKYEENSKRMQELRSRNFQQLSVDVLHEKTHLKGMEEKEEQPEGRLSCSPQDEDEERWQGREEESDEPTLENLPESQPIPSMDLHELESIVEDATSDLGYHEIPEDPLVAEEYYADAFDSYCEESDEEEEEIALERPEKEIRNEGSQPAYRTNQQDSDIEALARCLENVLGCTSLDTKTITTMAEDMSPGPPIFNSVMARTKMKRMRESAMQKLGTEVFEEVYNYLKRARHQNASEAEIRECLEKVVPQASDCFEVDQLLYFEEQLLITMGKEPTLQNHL

[23] = target: CRK2 (P.falciparum) (UniProt P61075)
CRK2 (P.falciparum), sequence (P61075 whole entry, looked up): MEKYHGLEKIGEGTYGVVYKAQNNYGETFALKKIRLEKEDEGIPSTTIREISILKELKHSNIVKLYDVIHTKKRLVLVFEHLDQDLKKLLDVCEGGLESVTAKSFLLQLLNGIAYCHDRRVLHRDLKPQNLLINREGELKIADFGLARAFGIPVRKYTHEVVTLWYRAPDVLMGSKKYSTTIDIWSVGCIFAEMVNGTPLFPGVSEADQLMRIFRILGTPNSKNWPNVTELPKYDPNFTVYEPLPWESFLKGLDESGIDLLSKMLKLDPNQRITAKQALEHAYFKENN

[24] = target: PIM3 (human) (UniProt Q86V86)
[25] = target: TLK2 (human) (UniProt Q86UE8)
[26] = target: CLK1 (human) (UniProt P49759)
[27] = target: PRKAA1 (human) (UniProt Q13131)
[28] = test system: PIK3CA (human), P42336 [H1047L]
[29] = target: BMPR2 (human) (UniProt Q13873)
[30] = target: CDK14 (human) (UniProt O94921)
[31] = target: MAPK13 (human) (UniProt O15264)
[32] = target: CDC42BPA (human) (UniProt Q5VT25)
[33] = target: MAP3K15 (human) (UniProt Q6ZN16)
[34] = test system: BMX (human), P51813 [V600E]
[35] = target: GRK4 (human) (UniProt P32298)
[36] = target: PIK3CG (human) (UniProt P48736)
[37] = target: MAPKAPK2 (human) (UniProt P49137)
MAPKAPK2 (human), sequence (P49137 whole entry, looked up): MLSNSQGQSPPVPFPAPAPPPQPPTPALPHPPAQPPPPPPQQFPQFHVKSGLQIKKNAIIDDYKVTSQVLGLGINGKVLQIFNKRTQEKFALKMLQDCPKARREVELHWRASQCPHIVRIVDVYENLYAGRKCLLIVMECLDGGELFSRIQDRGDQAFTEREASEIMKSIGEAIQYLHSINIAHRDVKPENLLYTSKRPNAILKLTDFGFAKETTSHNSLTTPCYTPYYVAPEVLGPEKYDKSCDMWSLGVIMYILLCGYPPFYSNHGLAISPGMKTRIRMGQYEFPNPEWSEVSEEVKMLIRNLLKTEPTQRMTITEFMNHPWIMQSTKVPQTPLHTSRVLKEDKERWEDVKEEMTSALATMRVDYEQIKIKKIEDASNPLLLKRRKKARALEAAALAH

[38] = target: PDGFRA (human) (UniProt P16234)
[39] = target: IGF1R (human) (UniProt P08069)
IGF1R (human), sequence (P08069 whole entry, looked up): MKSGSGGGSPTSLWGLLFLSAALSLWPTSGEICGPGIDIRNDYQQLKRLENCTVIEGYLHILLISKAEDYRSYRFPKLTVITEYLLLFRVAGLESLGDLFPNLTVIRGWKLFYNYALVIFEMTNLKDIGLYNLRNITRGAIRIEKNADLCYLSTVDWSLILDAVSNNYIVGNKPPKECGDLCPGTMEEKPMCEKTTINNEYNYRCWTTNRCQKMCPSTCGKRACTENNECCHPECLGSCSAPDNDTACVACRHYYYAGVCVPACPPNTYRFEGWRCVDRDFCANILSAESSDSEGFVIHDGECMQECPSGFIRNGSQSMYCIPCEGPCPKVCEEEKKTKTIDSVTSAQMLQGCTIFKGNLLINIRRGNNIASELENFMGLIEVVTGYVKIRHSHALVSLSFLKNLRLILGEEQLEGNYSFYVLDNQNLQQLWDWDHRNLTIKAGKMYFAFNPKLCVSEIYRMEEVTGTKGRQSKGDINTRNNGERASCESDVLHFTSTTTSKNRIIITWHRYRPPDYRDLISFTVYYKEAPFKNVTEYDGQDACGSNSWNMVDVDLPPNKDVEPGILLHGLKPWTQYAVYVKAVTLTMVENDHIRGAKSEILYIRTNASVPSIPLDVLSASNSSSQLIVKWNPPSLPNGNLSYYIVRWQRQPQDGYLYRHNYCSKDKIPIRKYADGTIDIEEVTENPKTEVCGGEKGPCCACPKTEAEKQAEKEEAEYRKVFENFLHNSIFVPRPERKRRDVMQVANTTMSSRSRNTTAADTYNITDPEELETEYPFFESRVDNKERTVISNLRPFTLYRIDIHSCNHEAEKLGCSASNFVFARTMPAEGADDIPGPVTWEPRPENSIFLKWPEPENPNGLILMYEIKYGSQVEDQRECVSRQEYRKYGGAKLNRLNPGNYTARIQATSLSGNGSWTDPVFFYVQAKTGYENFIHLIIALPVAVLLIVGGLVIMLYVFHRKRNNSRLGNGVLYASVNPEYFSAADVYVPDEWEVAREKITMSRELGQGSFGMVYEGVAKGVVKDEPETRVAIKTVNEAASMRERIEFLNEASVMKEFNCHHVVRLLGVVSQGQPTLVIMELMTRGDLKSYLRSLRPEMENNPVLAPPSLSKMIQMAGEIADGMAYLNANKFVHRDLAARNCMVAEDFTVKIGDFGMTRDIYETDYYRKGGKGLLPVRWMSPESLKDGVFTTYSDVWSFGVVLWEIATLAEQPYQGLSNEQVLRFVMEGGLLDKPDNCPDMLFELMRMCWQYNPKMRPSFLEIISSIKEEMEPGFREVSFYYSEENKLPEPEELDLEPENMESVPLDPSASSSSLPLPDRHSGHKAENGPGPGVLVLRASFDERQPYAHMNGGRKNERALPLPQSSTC

[40] = test system: EGFR (human), P00533 [G719C]

Compound | kinase still bound, per cent of control [2] [%] | kinase still bound, per cent of control [3] [%] | kinase still bound, per cent of control [4] [%] | kinase still bound, per cent of control [5] [%] | kinase still bound, per cent of control [6] [%] | kinase still bound, per cent of control [7] [%] | kinase still bound, per cent of control [8] [%] | kinase still bound, per cent of control [9] [%] | kinase still bound, per cent of control [10] [%] | kinase still bound, per cent of control [11] [%] | kinase still bound, per cent of control [12] [%] | kinase still bound, per cent of control [13] [%] | kinase still bound, per cent of control [14] [%] | kinase still bound, per cent of control [15] [%] | kinase still bound, per cent of control [16] [%] | kinase still bound, per cent of control [17] [%] | kinase still bound, per cent of control [18] [%] | kinase still bound, per cent of control [19] [%] | kinase still bound, per cent of control [21] [%] | kinase still bound, per cent of control [22] [%] | further results
N#C/C(=C1/Nc2ccccc2S1)c1ccnc(NCCc2cccnc2)n1 | 100 | 73 | 3.7 | 98 | 100 | 96 | 100 | 85 | 45 | 2.4 | 53 | 100 | 100 | 61 | 2.7 | 91 | 100 | 100 | 100 | 100 | kinase still bound, per cent of control [1]: 100%; kinase still bound, per cent of control [20]: 100%; kinase still bound, per cent of control [23]: 100%; kinase still bound, per cent of control [24]: 2.3%; kinase still bound, per cent of control [25]: 75%; kinase still bound, per cent of control [26]: 69%; kinase still bound, per cent of control [27]: 100%; kinase still bound, per cent of control [28]: 85%; kinase still bound, per cent of control [29]: 88%; kinase still bound, per cent of control [30]: 100%; kinase still bound, per cent of control [31]: 51%; kinase still bound, per cent of control [32]: 83%; kinase still bound, per cent of control [33]: 100%; kinase still bound, per cent of control [34]: 6.8%; kinase still bound, per cent of control [35]: 32%; kinase still bound, per cent of control [36]: 50%; kinase still bound, per cent of control [37]: 100%; kinase still bound, per cent of control [38]: 100%; kinase still bound, per cent of control [39]: 100%
COc1cc2c(Nc3ccc(NC(=O)c4ccccc4)cc3)ncnc2cc1OCCCN1CCOCC1 | 9.6 | 60 | 80 | 37 | 100 | 100 | 96 | 86 | 100 | 100 | 44 | 100 | 83 | 99 | 81 | 90 | 60 | 98 | 100 | 100 | kinase still bound, per cent of control [20]: 100%; kinase still bound, per cent of control [23]: 100%; kinase still bound, per cent of control [24]: 100%; kinase still bound, per cent of control [25]: 100%; kinase still bound, per cent of control [26]: 100%; kinase still bound, per cent of control [27]: 62%; kinase still bound, per cent of control [28]: 99%; kinase still bound, per cent of control [40]: 0.45%; kinase still bound, per cent of control [29]: 81%; kinase still bound, per cent of control [30]: 100%; kinase still bound, per cent of control [31]: 40%; kinase still bound, per cent of control [32]: 85%; kinase still bound, per cent of control [33]: 100%; kinase still bound, per cent of control [34]: 100%; kinase still bound, per cent of control [35]: 100%; kinase still bound, per cent of control [36]: 100%; kinase still bound, per cent of control [37]: 100%; kinase still bound, per cent of control [38]: 2%; kinase still bound, per cent of control [39]: 100%
CC1=C(C(=O)Nc2cc3cn[nH]c3cc2F)C(c2ccc(C(F)(F)F)cc2)CC(=O)N1 (configuration not stated) | 39 | 88 | 54 | 17 | 39 | 100 | 52 | 92 | 77 | 86 | 74 | 90 | 71 | 83 | 100 | 76 | 87 | 70 | 100 | 100 | kinase still bound, per cent of control [1]: 80%; kinase still bound, per cent of control [23]: 100%; kinase still bound, per cent of control [24]: 92%; kinase still bound, per cent of control [25]: 100%; kinase still bound, per cent of control [26]: 72%; kinase still bound, per cent of control [27]: 13%; kinase still bound, per cent of control [28]: 83%; kinase still bound, per cent of control [40]: 37%; kinase still bound, per cent of control [29]: 97%; kinase still bound, per cent of control [30]: 89%; kinase still bound, per cent of control [31]: 98%; kinase still bound, per cent of control [32]: 79%; kinase still bound, per cent of control [33]: 77%; kinase still bound, per cent of control [34]: 87%; kinase still bound, per cent of control [35]: 99%; kinase still bound, per cent of control [36]: 88%; kinase still bound, per cent of control [37]: 100%; kinase still bound, per cent of control [38]: 84%; kinase still bound, per cent of control [39]: 98%
